pIC50: −log10 of the molar value. Positions of bridges follow the written chain, without caps; N, C: chain ends. Residues, ends and D or L forms follow the SMILES beside them. No end group written: not given here.
Legend:
[1] = test system: HeLa P4 indicator cells infected with HIV-1Lai; assay: HIV-1 promoter activation assay (LTR-driven β-galactosidase); assay type: cell-based
Description: (§1) HeLa P4 indicator cells (8×10^4 cells/ml) were cultured in medium supplemented or not with infectious HIV-1Lai in the presence or absence of antibodies for three days, harvested and lysed. β-galactosidase activity was then determined as previously described by measuring the absorbance at 410 nm.
as §1, with “with 1000 TCID50 of” for “with”, “peptides or mAb” for “antibodies”, “3” for “three”, “lysed. The” for “lysed.”, “activities were” for “activity was”

[2] = assay type: in vitro ADME
Source text: A relatively high concentration of peptides is preferred to achieve efficient biological activity with regard to the efficient antibody dose. […] We believe that use of D-amino acids for peptide synthesis would improve their metabolic stability.

[3] = test system: pdb10F T cells stimulated by pep24-pulsed EBV-Lu antigen-presenting cells; assay: IL-2 secretion assay following antigen presentation; assay type: cell-based, murine; conditions: for inhibition of IL2 secretion: Example 2, Table 1 (table not given)
His6-sCD4 = target: T1, His6-sCD4 (Homo sapiens, UniProt P01730); assay: ELISA binding of His6-sCD4 to coated cyclic PDPs; conditions: 20 nM His6-sCD4, FIG. 8
T1 construct: codons 1 to 6, and the anti-sense primer SCD4RTB (5′-[…]), which contains the reverse complement of codons 367 to 372; made in house; host or cells: Spodoptera frugiperda Sf9 cells, baculovirus (p119L vector, P10 promoter)
Description: Three replicates corresponding to 10-fold serial dilutions of the nine cyclic PDPs (CB1-CB9) were coated overnight at 4° C. onto 96-well ELISA plates (Nunc. Paisley, UK) with an initial peptide concentration of 50 μM. Four washes in 160 mM PBS, pH 7.2, containing 0.1% Tween 20 (PBS-T) were performed before and after saturating the wells with 1% non-fat dry milk in PBT-T for 1 h at 37° C. Thereafter, 100 μl of 20 nM His6-sCD4 was added to each well. Following a 2 h incubation and four washes in PBS-T, bound His6-sCD4 was detected by addition of 100 μl of a 1:2000 solution of peroxidase-conjugated anti-His6 mAb (Sigma) and subsequent addition of peroxidase substrate. Absorbance was measured at 490 nm.

[4] = peptide diluted in 20% acetonitrile buffer

Molecule | inhibition of HIV-1Lai LTR-driven β-galactosidase expression [1, 4] | inhibition of IL2 secretion [3] | CD4 binding of coated cyclic peptide (His6-sCD4) | inhibition of HIV-1Lai LTR-driven β-galactosidase expression ([1]; Example 2, 3 days, FIG. 10A) | other results
CC(C)C[C@@H]1NC(=O)[C@@H](NC(=O)[C@@H](N)CCCCN)CSSC[C@@H](C(=O)N[C@@H](CCCCN)C(N)=O)NC(=O)[C@H](CO)NC(=O)[C@H](CCC(N)=O)NC(=O)[C@H](CCCNC(=N)N)NC(=O)[C@H](C(C)C)NC(=O)[C@H](Cc2c[nH]c3ccccc23)NC(=O)[C@H](Cc2c[nH]cn2)NC(=O)[C@H](C(C)C)NC(=O)CNC(=O)[C@H](Cc2ccccc2)NC(=O)[C@H]([C@@H](C)O)NC(=O)[C@H]([C@@H](C)O)NC1=O [CB1] (H-KCLTTFGVHWVRQSCK-NH2; disulfide 2-15; N-terminus and C-terminus assumed) | no inhibition | – | – | – | inhibition of HIV-1Lai LTR-driven β-galactosidase expression ([1]; 50 μM peptide, 3 days, FIG. 10A): significant inhibition; pIC50 ([1]; FIG. 10B, read-out: IC50 of inhibition of β-galactosidase activity): ~4.82; decrease in binding of CD4 to peptide after pre-incubation [2]: 50%; concentration range with inhibitory activity of IL2 secretion ([3]; Example 2): 125 to 250 µM
CC[C@H](C)[C@@H]1NC(=O)[C@@H](NC(=O)[C@@H](N)CCCCN)CSSC[C@@H](C(=O)N[C@@H](CCCCN)C(N)=O)NC(=O)[C@H](CCC(N)=O)NC(=O)[C@H](CCCCN)NC(=O)[C@H](CCC(N)=O)NC(=O)[C@H](CCC(N)=O)NC(=O)[C@H](Cc2ccc(O)cc2)NC(=O)[C@H](Cc2c[nH]c3ccccc23)NC(=O)[C@H](C)NC(=O)[C@H](CC(C)C)NC(=O)[C@H](Cc2ccc(O)cc2)NC(=O)[C@H](CO)NC(=O)[C@H](Cc2ccc(O)cc2)NC1=O [CB8] (H-KCIYSYLAWYQQKQCK-NH2; disulfide 2-15) | lack of activity | lack of activity | – | – | –
KEEICEVEDQTY (not fully specified (N-terminus, C-terminus, bridges); also: cyclized (bridge not given here)) [ScCDR3-like, scrambled form of the CD4-derived CDR3-like peptide] | – | – | non-reactivity | – | –
GSDQWNKMQYYP (not fully specified (N-terminus, C-terminus, bridges); also: cyclized (bridge not given here)) [ScCM9, scrambled form of PDP CM9, Lys-Cys added at both termini, reference compound] | – | no inhibition | non-reactivity | did not affect | –
FGDYYCLQYASS (not fully specified (N-terminus, C-terminus, bridges); also: cyclized (bridge not given here)) [Dig97c, unrelated peptide derived from the CDR-L3 region of the anti-digoxin 1C10 mAb, reference compound] | – | – | – | did not affect | –
